Experimental findings from patent publication US20100323434A1, “Compartmentalized Nerve Culture System” (priority 2009, published 2010) are described below.

The test system of data set [1] is Primary hippocampal neurons. The data set is described as follows: Oxidative stress by H2O2 added selectively to the somal compartment of the microfluidic device. Particulars: added to somal compartment of one group of neuronal cell bodies (2 mM peroxide media); over the course of 24-72 h. It counts as cell-based.
For data set [2], the system named is Dorsal root ganglia (DRG) neuronal cultures. It counts as cell-based, rats. To be noted: rat, 24 h, 25 ng/mL. The source says:
A two-step photolithographic process was utilized to create the master mold. Silicon wafers (University Wafer, MA) were coated with SU-8 2002 (Microchem; MA), spun, and soft baked using parameters specified by the manufacturer to yield a resist thickness of 2.5 microns. An array of microchannels, each with dimensions: width=10 microns, length=500 microns, were defined by UV light exposure through a high resolution DPI transparency (Cad/Art, OR). The exposed substrate was once again baked, to enhance polymer cross-linking post exposure, and developed as stated in the resist technical sheet to fully define the microchannels. […]
In order to identify the susceptibility of axons and cell bodies to paclitaxel, we added 25 ng/mL of paclitaxel to either axon or cell body chambers and continued to culture the DRGs for another 24 hours. Once images of the fluorescently labeled cells and axons were captured, we used ImageJ to calculate axon lengths and calculated percent change in axon length compared to 24 hours before taxol exposure.
Studies on the neuroprotective effect of EPO were performed with concurrent administration of paclitaxel, which was applied to either the neuronal cell body or axonal side. […] Axon degeneration was defined as the change in axon length over the total axon length expressed as a percentage.

In the case of `OO` [H2O2], the “neuronal cell death and axonal degeneration” value in data set [1] is “induction of neuronal cell death and accompanying axonal degeneration”.

In the case of `CC(=O)O[C@H]1C(=O)[C@@]2(C)[C@H]([C@H](OC(=O)c3ccccc3)[C@]3(O)C[C@H](OC(=O)[C@H](O)[C@@H](NC(=O)c4ccccc4)c4ccccc4)C(C)=C1C3(C)C)[C@]1(OC(C)=O)CO[C@@H]1C[C@@H]2O` [paclitaxel, Paclitaxel, reference compound], in data set [2], the “decrease in the length of axons” value is listed as 28.6 ± 11.2%.
